Some test systems named below: DMS-273; DMS-114; M19-MEL; HOP-18; KM-20L2; XF498; DLD-1; RXF 631; LXFL 529.
Common to all, as to test: NCI tumour cell line growth inhibition, 48 h

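Values below derive from 48-hour exposures of cells grown in 96-well plates, with endpoints linearly interpolated between the two concentrations bracketing the appropriate inhibition level. Here, GI50 denotes the concentration required for 50% inhibition of growth.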 Activity calls are given as the source filed them. No stated cut-off is given here; in the data, active = GI50 up to about 1.1 µM and inactive = higher.

The values below come from ChEMBL document CHEMBL1201862, “PubChem BioAssay data set” (2004).

Regarding `COc1cccc2nc3c(C(=O)NCCN(C)C)cccc3nc12`, the GI50 with DMS-273 is 7.36 µM (inactive); in the test on DMS-114, 8.07 µM (inactive); in the test with M19-MEL, 8.07 µM (inactive); with HOP-18, 29.5 µM (inactive); in the test with KM-20L2, 8.38 µM (inactive); in the test with XF498, 0.986 µM (active). Further, the GI50 is 5.68 µM (inactive) in the test with DLD-1, 10.8 µM (inactive) with RXF 631 and 11.1 µM (inactive) in the test with LXFL 529.
